We go through four compounds from US4588725A, “2-piperazinyl-quinazoline derivatives and pharmaceutical compositions containing them” (Sandoz Ltd., priority 1982, dated 1986).

The term IC50 denotes the concentration needed to halve the response being measured.

Test [1] deals with sleep/wake cycle (sleep phase II, paradoxical sleep). Briefly: sleep/wake cycle in rats. The test is classed as in vivo. The procedure: Furthermore, the compounds on administration of 2-20 mg/kg p.o. to rats increase the sleep phase II and decrease the paradoxical sleep in the sleep/wake cycle carried out in accordance with the principles of H. Kleinlogel et al., European J. Pharmacol. 33, 159-163 (1975). […]

A further test relates to locomotion. Briefly: inhibition of locomotion in mice. The test is classed as in vivo, mice (male, OF-1). The note with it: Mus musculus, po, minimum dose with significant inhibition, p.o., 1 hour after administration, read-out: Locomotor inhibition EDmin. The procedure:
In particular, the compounds of formula I are useful as neuroleptic agents in the treatment of e.g. psychotic disorders such as schizophrenia, as indicated in standard tests, e.g. by an inhibition of locomotion in mice. In this test groups of 3 male mice (18-24 g, OF-1, Sandoz Basle) received 3.2, 10, 32, 100 and […]. of the test drug. 1 hour after drug administration the mice were observed individually and their locomotion compared with that of control. The locomotion of the animals was observed and the EDmin (the minimum dose at which significant inhibition was observed) determined.

Test [2] has as its target T1, 3H-spiperone binding sites (Bos taurus, UniProt P20288).
T1 construct: fresh calf brain striatal tissue was homogenized; from tissue; host or cells: calf brain striatum, membranes
Briefly: 3H-spiperone binding in calf brain striatal tissue. The following applies: for IC50: calf striatal membranes, 0.1 nM 3H-spiperone, 5×10^-7 M cinanserin, pH 7.7, 40 min room temperature, read-out: Receptor binding IC50 3H-spiperone; for effect in the 3H-spiperone binding test compared with Clozapine: in words, versus Clozapine. How it is done: The compounds of the invention bind further on ^3 H-spiperone binding sites in the brain [modified method of J. Leysen et al., Biochem. Pharmac. […] The test was performed as follows: fresh calf brain striatal tissue was homogenized in the 25 fold volume of tris buffer (pH 7.4, 50 mM, 120 mM sodium chloride) and centrifuged. The pellets were suspended in the 22 fold volume of tris buffer, incubated for 15 minutes at 37° C. and centrifuged. The pellets were suspended in the 300 fold volume of tris buffer. […] After incubation for 40 minutes at room temperature, the assay mixtures were rapidly filtered through Whatman GF/B filter, the filters washed twice with 5 ml of ice cold tris buffer and scintillation-counted.

For test [3], the system named is blood pressure or heart rate. Briefly: blood pressure / heart rate in anaesthetized normotonic rats. The test is classed as in vivo, female normotonic rats (Sprague-Dawley). The following applies: Rattus norvegicus, iv, cumulative i.v. doses, by interpolation, read-out: ED75 (dose required to reduce the blood pressure or the heart rate to 75% of pretreatment values). The procedure: In another test female normotonic rats (200-350 g, Sprague-Dawley, Suddeutsche Tierfarm, Tuttlingen, FRG) were anaesthetized with urethane (1.5-1.75 g/kg i.p. in 2 portions) and a tracheal cannula was inserted. Blood pressure and heart rate were recorded from the carotid artery by conventional methods. Test drugs were administered by the jugular or the femoral vein. Body temperature was maintained at 34° C. by means of a temperature regulator (Alfos MK-4) triggered by a thermistor on the animal. After adaptation, increasing doses of the test drug were injected i.v. to give the following cumulative doses: 3, 13, 43, 143, 343 and 1443 μg/kg. ED 75% is the dose required to reduce the blood pressure or the heart rate to 75% of pretreatment values. It was obtained through interpolation. The ED75 of the Example 3a compound is 524 μg/kg i.v.

Another test deals with α1-receptors. Briefly: 3H-Prazosin binding assay for α1-receptors in calf brain cortex tissue. The note with it: calf brain cortex membranes, 0.3 nM 3H-Prazosin, pH 7.7, 40 min room temperature; read-out: IC50 (inhibition of specific 3H-Prazosin binding). How it is done:
The compounds of the invention are furthermore useful as anti-hypertensive agents, as indicated in standard tests, for example in the ^3 H-Prazosin binding assay for α1 -receptors [modified method of Greengrass P., et al., Eur. J. Pharmac. 55, 323-326 (1979)]. The test was performed as follows:
Fresh calf brain cortex tissue is homogenized in a 20 fold volume of Tris-HCl buffer (50 mM, pH 7.7), using a Polytron PT 20, and centrifuged at 30,000×g for 25 min. The pellets are resuspended in a 13 fold volume of the same buffer, incubated for 15 min at 37° C., and recentrifuged at 50,000×g for 11 min. The pellets of this centrifugation are frozen at -20° C. and resuspended in a 60 fold volume of the same buffer as above before use for the binding experiment. The composition of the assay mixtures (total volume=2 ml) is as follows: 50 mM Tris-HCl pH 7.7, membranes corresponding to 30 mg of original tissue weight, and 0.3 nM ^3 H-Prazosin. The assays for the definition of nonspecific binding additionally contain phentolamine at a concentration of 10 μM. To assess the potency of drugs in inhibiting specific ^3 H-Prazosin binding (difference between total and nonspecific binding), the test compounds are added to give 5 to 9 different concentrations between 1 nM and 10 μM, each in duplicate. […] The radioactivity of the filters is estimated by scintillation counting.

T1 sequence (P20288 whole entry): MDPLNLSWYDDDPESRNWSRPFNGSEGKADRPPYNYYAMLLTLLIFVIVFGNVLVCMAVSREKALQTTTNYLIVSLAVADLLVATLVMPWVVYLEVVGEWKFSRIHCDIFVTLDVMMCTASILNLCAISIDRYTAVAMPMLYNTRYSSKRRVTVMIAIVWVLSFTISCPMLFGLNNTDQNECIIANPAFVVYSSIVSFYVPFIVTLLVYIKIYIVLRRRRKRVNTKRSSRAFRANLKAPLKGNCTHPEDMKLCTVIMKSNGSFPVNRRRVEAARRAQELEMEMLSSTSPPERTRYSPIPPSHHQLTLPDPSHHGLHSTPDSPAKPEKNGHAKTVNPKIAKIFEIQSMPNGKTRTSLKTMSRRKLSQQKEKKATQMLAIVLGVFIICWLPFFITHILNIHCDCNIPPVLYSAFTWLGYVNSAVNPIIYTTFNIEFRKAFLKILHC

For the compound `O=C(CCCN1CCN(c2ncc3ccccc3n2)CC1)c1ccc(F)cc1` [Example 1, 4-[4-(Quinazolin-2-yl)-1-piperazinyl]-1-(4-fluorophenyl)-1-butanone], in test [1] (3.2 mg/kg po), the “Sleep phase II” value is listed as 171 % of control and the paradoxical sleep is on record as 92 % of control. For the same compound, the minimal effective dose in the test with locomotion is 3.3 mg/kg. Further, in test [2], the IC50 was determined as 344 nM and the “effect in the 3H-spiperone binding test compared with Clozapine” value is given as “stronger effects in the ^3 H-spiperone binding test than Clozapine”.

`Cc1nc(N2CCN(CCCC(=O)c3ccc(F)cc3)CC2)nc2ccccc12` [Example 3a]: the ED75 in test [3] is 0.524 mg/kg. For the same compound, the IC50 on α1-receptors was 3.5 nM.

Turning to `O=C(CCCN1CCN(c2nc(-c3ccccc3)c3ccccc3n2)CC1)c1ccc(F)cc1` [Example 3e], in test [1] (10 mg/kg po), the “Sleep phase II” value is given as 607 % of control and the paradoxical sleep was 9 % of control. The minimal effective dose in the test with locomotion was < 3.2 mg/kg. In test [2], the IC50 turned out to be 342 nM and the “effect in the 3H-spiperone binding test compared with Clozapine” value is reported as “stronger effects in the ^3 H-spiperone binding test than Clozapine”.

Consider `CN1CCN(C2=Nc3cc(Cl)ccc3Nc3ccccc32)CC1` [clozapine, reference compound], for which, in test [1] (10 mg/kg po), the “Sleep phase II” value is listed as 483 % of control and the paradoxical sleep is 26 % of control. Further, the minimal effective dose in the test on locomotion was determined as 3.2 mg/kg.
